From ChEMBL document CHEMBL1201862, “PubChem BioAssay data set” (2004)
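Dose response: 5 concentrations. Exposure: 48 h. Format: 96-well plates. Endpoint: linear interpolation; highest concentration if not reached. Here, GI50 denotes the concentration required for 50% inhibition of growth.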 Activity calls are given as the source filed them. Cut-off read from the data, not from the text of the source: active = GI50 up to about 1.1 µM and inactive = higher.

Columns and labels:
Assay in all cases: NCI tumour cell line growth inhibition, 48 h
COLO 205 = tested on: COLO 205
NCI/ADR-RES = tested on: NCI/ADR-RES
U-251 = tested on: U-251
HT-29 = tested on: HT-29
HCC 2998 = tested on: HCC 2998
SK-MEL-2 = tested on: SK-MEL-2
SNB-19 = tested on: SNB-19
SF-295 = tested on: SF-295
SR = tested on: SR
RPMI-8226 = tested on: RPMI-8226
786-0 = tested on: 786-0
UACC-257 = tested on: UACC-257
MDA-MB-435 = tested on: MDA-MB-435
OVCAR-8 = tested on: OVCAR-8
RXF 393 = tested on: RXF 393
HOP-92 = tested on: HOP-92
IGROV-1 = tested on: IGROV-1
OVCAR-5 = tested on: OVCAR-5
CCRF-CEM = tested on: CCRF-CEM
PC-3 = tested on: PC-3
NCI-H522 = tested on: NCI-H522
NCI-H23 = tested on: NCI-H23
CAKI-1 = tested on: CAKI-1
BT-549 = tested on: BT-549
Hs-578T = tested on: Hs-578T
SF-539 = tested on: SF-539
SW-620 = tested on: SW-620
SK-OV-3 = tested on: SK-OV-3
SK-MEL-5 = tested on: SK-MEL-5
EKVX = tested on: EKVX
MDA-N = tested on: MDA-N
NCI-H226 = tested on: NCI-H226
NCI-H460 = tested on: NCI-H460
K562 = tested on: K562
TK-10 = tested on: TK-10
HCT-15 = tested on: HCT-15
M14 = tested on: M14
MDA-MB-231 = tested on: MDA-MB-231
SN12C = tested on: SN12C
HL-60 = tested on: HL-60
HCT-116 = tested on: HCT-116
OVCAR-3 = tested on: OVCAR-3
A498 = tested on: A498
DU-145 = tested on: DU-145
LOX IMVI = tested on: LOX IMVI
SNB-75 = tested on: SNB-75
ACHN = tested on: ACHN
Malme-3M = tested on: Malme-3M
SF-268 = tested on: SF-268
MOLT-4 = tested on: MOLT-4
KM12 = tested on: KM12
OVCAR-4 = tested on: OVCAR-4
SK-MEL-28 = tested on: SK-MEL-28
MCF7 = tested on: MCF7
UACC-62 = tested on: UACC-62
A549 = tested on: A549
HOP-62 = tested on: HOP-62
UO-31 = tested on: UO-31
T47D = tested on: T47D

How did the GI50 (COLO 205) turn out when COc1ccc(CCc2ccc3c(c2)OCO3)cc1 was run?
Its GI50 is > 100 µM (inactive).

What about the GI50 (NCI/ADR-RES) of the same compound?
Its GI50 is 77.4 µM (inactive).

What about the GI50 (U-251) of the same compound?
Its GI50 is 33.7 µM (inactive).

What about the GI50 (HT-29) of the same compound?
The GI50 was 28.7 µM (inactive).

What about the GI50 (HCC 2998) of the same compound?
Its GI50 is 79.4 µM (inactive).

And the GI50 (SK-MEL-2)?
The GI50 was 31.5 µM (inactive).

And the GI50 (SNB-19)?
Its GI50 is > 100 µM (inactive).

What about the GI50 (SF-295) of the same compound?
The GI50 was 65 µM (inactive).

And the GI50 (SR)?
Its GI50 is 17.5 µM (inactive).

What about the GI50 (RPMI-8226) of the same compound?
Its GI50 is 36.6 µM (inactive).

And the GI50 (786-0)?
Its GI50 is > 100 µM (inactive).

What about the GI50 (UACC-257) of the same compound?
The GI50 was 77.1 µM (inactive).

And the GI50 (MDA-MB-435)?
The GI50 was 19.6 µM (inactive).

And the GI50 (OVCAR-8)?
Its GI50 is > 100 µM (inactive).

What about the GI50 (RXF 393) of the same compound?
The GI50 was 21.9 µM (inactive).

And the GI50 (HOP-92)?
The GI50 was 36.8 µM (inactive).

What about the GI50 (IGROV-1) of the same compound?
The GI50 was 70.5 µM (inactive).

And the GI50 (OVCAR-5)?
Its GI50 is > 100 µM (inactive).

What about the GI50 (CCRF-CEM) of the same compound?
The GI50 was 35.9 µM (inactive).

What about the GI50 (PC-3) of the same compound?
The GI50 was 34.6 µM (inactive).

And the GI50 (NCI-H522)?
Its GI50 is 51.3 µM (inactive).

What about the GI50 (NCI-H23) of the same compound?
Its GI50 is > 100 µM (inactive).

What about the GI50 (CAKI-1) of the same compound?
Its GI50 is 75.5 µM (inactive).

And the GI50 (BT-549)?
The GI50 was 62.5 µM (inactive).

And the GI50 (Hs-578T)?
The GI50 was 86.3 µM (inactive).

What about the GI50 (SF-539) of the same compound?
Its GI50 is 92 µM (inactive).

What about the GI50 (SW-620) of the same compound?
Its GI50 is 32.8 µM (inactive).

What about the GI50 (SK-OV-3) of the same compound?
The GI50 was > 100 µM (inactive).

What about the GI50 (SK-MEL-5) of the same compound?
Its GI50 is 34.9 µM (inactive).

And the GI50 (EKVX)?
Its GI50 is 66.8 µM (inactive).

What about the GI50 (MDA-N) of the same compound?
Its GI50 is 28.9 µM (inactive).

What about the GI50 (NCI-H226) of the same compound?
The GI50 was 62.5 µM (inactive).

And the GI50 (NCI-H460)?
Its GI50 is > 100 µM (inactive).

What about the GI50 (K562) of the same compound?
The GI50 was 38.5 µM (inactive).

What about the GI50 (TK-10) of the same compound?
Its GI50 is > 100 µM (inactive).

What about the GI50 (HCT-15) of the same compound?
Its GI50 is 35.2 µM.

And the GI50 (M14)?
The GI50 was 49.8 µM (inactive).

And the GI50 (MDA-MB-231)?
The GI50 was > 100 µM (inactive).

And the GI50 (SN12C)?
The GI50 was > 100 µM (inactive).

And the GI50 (HL-60)?
The GI50 was 21.4 µM (inactive).

What about the GI50 (HCT-116) of the same compound?
The GI50 was 36.6 µM (inactive).

What about the GI50 (OVCAR-3) of the same compound?
The GI50 was 31.6 µM (inactive).

What about the GI50 (A498) of the same compound?
The GI50 was > 100 µM (inactive).

What about the GI50 (DU-145) of the same compound?
The GI50 was 43 µM (inactive).

What about the GI50 (LOX IMVI) of the same compound?
Its GI50 is 73.6 µM (inactive).

What about the GI50 (SNB-75) of the same compound?
The GI50 was > 100 µM (inactive).

What about the GI50 (ACHN) of the same compound?
The GI50 was > 100 µM (inactive).

What about the GI50 (Malme-3M) of the same compound?
The GI50 was > 100 µM (inactive).

What about the GI50 (SF-268) of the same compound?
Its GI50 is > 100 µM (inactive).

What about the GI50 (MOLT-4) of the same compound?
The GI50 was 34.7 µM (inactive).

What about the GI50 (KM12) of the same compound?
Its GI50 is 29.2 µM (inactive).

And the GI50 (OVCAR-4)?
The GI50 was 68.7 µM (inactive).

What about the GI50 (SK-MEL-28) of the same compound?
The GI50 was > 100 µM (inactive).

What about the GI50 (MCF7) of the same compound?
Its GI50 is 35.8 µM (inactive).

And the GI50 (UACC-62)?
Its GI50 is > 100 µM (inactive).

And the GI50 (A549)?
Its GI50 is 68.9 µM (inactive).

And the GI50 (HOP-62)?
The GI50 was > 100 µM (inactive).

How did the GI50 (COLO 205) turn out when CC(C)(C)c1ccc(C(C)(C)C)c(N2C(=O)C3ON=C(c4ccc([N+](=O)[O-])cc4)C3C2=O)c1 (configuration not stated) was run?
The GI50 was > 25 µM (inactive).

And the GI50 (NCI/ADR-RES)?
Its GI50 is 17.3 µM (inactive).

What about the GI50 (HT-29) of the same compound?
Its GI50 is 21.4 µM (inactive).

What about the GI50 (HCC 2998) of the same compound?
Its GI50 is 5.02 µM (inactive).

What about the GI50 (SNB-19) of the same compound?
Its GI50 is > 25 µM (inactive).

What about the GI50 (SF-295) of the same compound?
Its GI50 is 12.9 µM (inactive).

And the GI50 (SR)?
The GI50 was 3.48 µM (inactive).

What about the GI50 (RPMI-8226) of the same compound?
The GI50 was 10 µM (inactive).

And the GI50 (786-0)?
The GI50 was 3.15 µM (inactive).

And the GI50 (UACC-257)?
Its GI50 is > 25 µM (inactive).

What about the GI50 (MDA-MB-435) of the same compound?
The GI50 was 8.77 µM (inactive).

And the GI50 (OVCAR-8)?
Its GI50 is 10.4 µM (inactive).

What about the GI50 (RXF 393) of the same compound?
Its GI50 is 15.1 µM (inactive).

And the GI50 (HOP-92)?
Its GI50 is 9.46 µM (inactive).

What about the GI50 (IGROV-1) of the same compound?
Its GI50 is 4.5 µM (inactive).

What about the GI50 (OVCAR-5) of the same compound?
The GI50 was > 25 µM (inactive).

What about the GI50 (CCRF-CEM) of the same compound?
Its GI50 is > 25 µM (inactive).

What about the GI50 (NCI-H522) of the same compound?
Its GI50 is 18.4 µM (inactive).

And the GI50 (NCI-H23)?
The GI50 was > 25 µM (inactive).

And the GI50 (CAKI-1)?
The GI50 was > 25 µM (inactive).

And the GI50 (BT-549)?
Its GI50 is > 25 µM (inactive).

What about the GI50 (Hs-578T) of the same compound?
The GI50 was 6.98 µM (inactive).

What about the GI50 (SF-539) of the same compound?
The GI50 was > 25 µM (inactive).

And the GI50 (SW-620)?
Its GI50 is 16.2 µM (inactive).

What about the GI50 (SK-OV-3) of the same compound?
The GI50 was > 25 µM (inactive).

What about the GI50 (SK-MEL-5) of the same compound?
Its GI50 is > 25 µM (inactive).

What about the GI50 (EKVX) of the same compound?
The GI50 was 20.3 µM (inactive).

What about the GI50 (MDA-N) of the same compound?
The GI50 was 7.38 µM (inactive).

And the GI50 (NCI-H226)?
Its GI50 is 18.6 µM (inactive).

What about the GI50 (NCI-H460) of the same compound?
The GI50 was 6.75 µM (inactive).

What about the GI50 (K562) of the same compound?
The GI50 was 11 µM (inactive).

And the GI50 (TK-10)?
Its GI50 is > 25 µM (inactive).

And the GI50 (HCT-15)?
The GI50 was 20.3 µM.

What about the GI50 (UO-31) of the same compound?
The GI50 was 22.1 µM (inactive).

What about the GI50 (M14) of the same compound?
Its GI50 is > 25 µM (inactive).

What about the GI50 (SN12C) of the same compound?
The GI50 was > 25 µM (inactive).

And the GI50 (HL-60)?
The GI50 was > 25 µM (inactive).

And the GI50 (HCT-116)?
Its GI50 is 13.7 µM (inactive).

What about the GI50 (OVCAR-3) of the same compound?
The GI50 was 10.5 µM (inactive).

What about the GI50 (T47D) of the same compound?
Its GI50 is > 25 µM (inactive).

What about the GI50 (A498) of the same compound?
Its GI50 is 5.96 µM (inactive).

What about the GI50 (DU-145) of the same compound?
The GI50 was 10.8 µM (inactive).

What about the GI50 (LOX IMVI) of the same compound?
Its GI50 is 9.04 µM (inactive).

What about the GI50 (SNB-75) of the same compound?
Its GI50 is 5.07 µM (inactive).

And the GI50 (ACHN)?
The GI50 was 15.2 µM (inactive).

And the GI50 (Malme-3M)?
Its GI50 is > 25 µM (inactive).

And the GI50 (SF-268)?
Its GI50 is 13.7 µM (inactive).

And the GI50 (MOLT-4)?
Its GI50 is > 25 µM (inactive).

And the GI50 (KM12)?
The GI50 was > 25 µM (inactive).

And the GI50 (OVCAR-4)?
The GI50 was 8.57 µM (inactive).

And the GI50 (SK-MEL-28)?
The GI50 was > 25 µM (inactive).

And the GI50 (MCF7)?
The GI50 was 22.8 µM (inactive).

And the GI50 (UACC-62)?
Its GI50 is 17.8 µM (inactive).

And the GI50 (A549)?
Its GI50 is 5.61 µM (inactive).

And the GI50 (HOP-62)?
The GI50 was 23.4 µM (inactive).
